Patent EP3368527B1, “PALBOCICLIB TOSYLATE” (Egis Gyógyszergyár Zrt., priority 2015, dated 2017)
Like-named read-outs stand apart in the source and are kept apart here.

Experiments:
[1] = for amount of "other unknown contaminants": change after 3 weeks of storage; for water absorption: under various storage conditions, compared to the isethionate salt; for Known contaminant 2: RT 1.97 min
[2] = Dynamic vapour sorption analysis (DVS): water sorption isotherms, hygroscopicity; type: physicochemical; details: 25 °C
[3] = RT 1.70 min, 3 weeks, 25 °C 90% RH
[4] = RT 1.70 min, 3 weeks, 40 °C 70% RH
[5] = RT 2.56 min, 3 weeks, 25 °C 90% RH
[6] = RT 2.56 min, 3 weeks, 40 °C 70% RH

Compound | Total contamination ([1]; 3 weeks, 25 °C 90% RH) | Total unknown contaminant ([1]; 3 weeks, 25 °C 90% RH) | Water content ([1]; 3 weeks, 25 °C 90% RH) | Total contamination ([1]; 3 weeks, 40 °C 70% RH) | Total unknown contaminant ([1]; 3 weeks, 40 °C 70% RH) | Water content ([1]; 3 weeks, 40 °C 70% RH) | Total contamination ([1]; 3 weeks, 70 °C) | Total unknown contaminant ([1]; 3 weeks, 70 °C) | Water content ([1]; 3 weeks, 70 °C) | Total contamination ([1]; Starting sample) | Total unknown contaminant ([1]; Starting sample) | Water content ([1]; Starting sample) | amount of "other unknown contaminants" ([1]; in words) | hygroscopicity (water sorption isotherms) [2] | Unknown contaminant [1, 3] | Unknown contaminant [1, 4] | Unknown contaminant ([1]; RT 1.70 min, 3 weeks, 70 °C) | Unknown contaminant ([1]; RT 1.70 min, Starting sample) | Unknown contaminant [1, 5] | Unknown contaminant [1, 6] | further results
CC(=O)c1c(C)c2cnc(Nc3ccc(N4CCNCC4)cn3)nc2n(C2CCCC2)c1=O [palbociclib base Form A, 6-acetyl-8-cyclopentyl-5-methyl-2-{[5-(1-piperazinyl)-2-piridinyl]amino}pyrido[2,3-d]pyrimidin-7(8H)-one] | 0.23% | 0.16% | 0.42% m/m% | 0.17% | 0.13% | 0.41% m/m% | 0.23% | 0.15% | 0.39% m/m% | 0.13% | 0.09% | 0.23% m/m% | significantly increases | – | – | – | – | – | – | – | Known contaminant 1 (RT 1.85 min) ([1]; 3 weeks, 25 °C 90% RH): 0.03%; Known contaminant 2 (RT 1.97 min) ([1]; 3 weeks, 25 °C 90% RH): 0.04%; Unknown contaminant (RT 1.70 min) ([1]; 3 weeks, 25 °C 90% RH): 0.04%; Unknown contaminant (RT 2.56 min) ([1]; 3 weeks, 25 °C 90% RH): 0.07%; Unknown contaminant (RT 3.04 min) ([1]; 3 weeks, 25 °C 90% RH): 0.05%; Known contaminant 2 (RT 1.97 min) ([1]; 3 weeks, 40 °C 70% RH): 0.05%; Unknown contaminant (RT 1.70 min) ([1]; 3 weeks, 40 °C 70% RH): 0.05%; Unknown contaminant (RT 2.56 min) ([1]; 3 weeks, 40 °C 70% RH): 0.04%; Unknown contaminant (RT 3.04 min) ([1]; 3 weeks, 40 °C 70% RH): 0.04%; Known contaminant 1 (RT 1.85 min) ([1]; 3 weeks, 70 °C): 0.03%; Known contaminant 2 (RT 1.97 min) ([1]; 3 weeks, 70 °C): 0.05%; Unknown contaminant (RT 1.70 min) ([1]; 3 weeks, 70 °C): 0.04%; Unknown contaminant (RT 2.56 min) ([1]; 3 weeks, 70 °C): 0.06%; Unknown contaminant (RT 3.04 min) ([1]; 3 weeks, 70 °C): 0.05%; Known contaminant 2 (RT 1.97 min) ([1]; Starting sample): 0.04%; Unknown contaminant (RT 1.70 min) ([1]; Starting sample): 0.04%; Unknown contaminant (RT 2.56 min) ([1]; Starting sample): 0.05%
palbociclib maleate (Form II) (1:1) salt | – | – | – | – | – | – | – | – | – | – | – | – | – | does not exhibit significant hygroscopicity | – | – | – | – | – | – | –
palbociclib camsylate salt (1:1) [palbociclib camsylate (1:1) salt] | – | – | – | – | – | – | – | – | – | – | – | – | – | does not exhibit significant hygroscopicity | – | – | – | – | – | – | –
palbociclib maleate (Form I) (1:1) salt | – | – | – | – | – | – | – | – | – | – | – | – | – | does not exhibit significant hygroscopicity | – | – | – | – | – | – | –
palbociclib tosylate (1:1) salt | 0.09% | 0.09% | 0.51% m/m% | 0.09% | 0.09% | 0.49% m/m% | 0.10% | 0.10% | 0.49% m/m% | 0.08% | 0.08% | 0.34% m/m% | remains unchanged | – | 0.04% | 0.05% | 0.05% | 0.04% | 0.05% | 0.04% | hygroscopicity (water sorption isotherms) ([2]; listed as palbociclib 4-toluenesulfonic acid (1:1) salt): does not exhibit significant hygroscopicity; hygroscopicity (water sorption isotherms) ([2]; listed as palbociclib tosylate salt form): surprisingly low hygroscopicity; Unknown contaminant ([1]; RT 2.56 min, 3 weeks, 70 °C): 0.05%; Unknown contaminant ([1]; RT 2.56 min, Starting sample): 0.04%; water absorption ([1]; in words): significantly less water absorption; solubility (0.1 M HCl (pH=1), 37 °C, 1440 min): 20000 µg/mL; solubility (pH 4.5 (slightly acidic), 37 °C, compared to reference palbociclib base Form A, in words): significantly better; solubility (pH 4.5 (slightly acidic), 37 °C, compared to reference palbociclib base Form A, in words, listed as palbociclib tosylate salt form): significantly better solubility; solubility (pH=1, 37 °C, compared to reference palbociclib base Form A, in words): comparable; solubility (pH=4.5 phosphate buffer, 37 °C, 1440 min): 200 µg/mL; solubility (pH=6.8 phosphate buffer, 37 °C, 1440 min): <30 µg/mL
palbociclib hydrogen chloride (1:1) salt Form E | 0.22% | 0.16% | 0.45% m/m% | 0.19% | 0.13% | 0.41% m/m% | 0.23% | 0.17% | 0.42% m/m% | 0.20% | 0.15% | 0.21% m/m% | remains unchanged | does not exhibit significant hygroscopicity | 0.06% | 0.06% | 0.06% | 0.05% | 0.10% | 0.07% | stability ([1]; 3 weeks of storage under various forced conditions, compared to palbociclib base Form A and isethionate salt Form B, in words): more stable than the Form A base; Known contaminant 2 ([1]; 3 weeks, 25 °C 90% RH): 0.06%; Known contaminant 2 ([1]; 3 weeks, 40 °C 70% RH): 0.06%; Known contaminant 2 ([1]; 3 weeks, 70 °C): 0.06%; Known contaminant 2 ([1]; Starting sample): 0.05%; Unknown contaminant ([1]; RT 2.56 min, 3 weeks, 70 °C): 0.11%; Unknown contaminant ([1]; RT 2.56 min, Starting sample): 0.10%; water absorption ([1]; in words): significantly less water absorption
